In experiment [1] the target is T1, Heat shock factor protein 1 (Mus musculus, UniProt P38532).
T1 sequence (P38532 whole entry): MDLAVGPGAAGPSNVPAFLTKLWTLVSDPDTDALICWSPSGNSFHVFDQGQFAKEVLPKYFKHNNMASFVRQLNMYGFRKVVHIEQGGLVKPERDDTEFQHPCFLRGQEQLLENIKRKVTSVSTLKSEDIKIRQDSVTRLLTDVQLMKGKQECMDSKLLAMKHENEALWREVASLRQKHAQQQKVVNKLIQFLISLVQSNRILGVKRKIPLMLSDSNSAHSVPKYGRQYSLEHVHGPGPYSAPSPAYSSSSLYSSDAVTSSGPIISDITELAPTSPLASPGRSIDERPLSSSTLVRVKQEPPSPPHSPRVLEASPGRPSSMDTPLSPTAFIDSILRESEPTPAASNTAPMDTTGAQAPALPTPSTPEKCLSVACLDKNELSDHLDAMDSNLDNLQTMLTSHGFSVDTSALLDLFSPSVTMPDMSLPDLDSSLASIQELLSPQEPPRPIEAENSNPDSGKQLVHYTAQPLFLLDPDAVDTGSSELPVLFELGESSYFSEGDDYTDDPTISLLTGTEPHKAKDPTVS
As to the kind of experiment: HSF1 potentiators in luciferase reporter cells, confirmation, cell-based, NIH3T3, luminescence, dose retest (AID 435004).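 Further: stress induced by proteasome inhibitor MG132 added 30 min after compound; luciferase reporter driven by HSF1 response element in NIH3T3 cells; actives raise luminescence as potentiators of the MG132 stress response.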 In kind it is functional. On the technique in general: Reporter assays use an easily measured gene product as a stand-in for the process of interest.

In experiment [2] the target is T1, Heat shock factor protein 1. The experiment in a line: inhibition of MG132-induced HSE-luciferase signal, confirmation, cell-based, NIH3T3, luminescence, dose retest (AID 2382).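 Further: NIH3T3 fibroblasts with HSF1-driven luciferase reporter stressed by proteasome inhibitor MG132; luminescence from HSF1-driven luciferase expression after 8 hours of MG132 stress.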 It is filed as functional.
In a further experiment the target is T2, Protein skinhead-1 (Caenorhabditis elegans, UniProt P34707).
T2 sequence (P34707 whole entry): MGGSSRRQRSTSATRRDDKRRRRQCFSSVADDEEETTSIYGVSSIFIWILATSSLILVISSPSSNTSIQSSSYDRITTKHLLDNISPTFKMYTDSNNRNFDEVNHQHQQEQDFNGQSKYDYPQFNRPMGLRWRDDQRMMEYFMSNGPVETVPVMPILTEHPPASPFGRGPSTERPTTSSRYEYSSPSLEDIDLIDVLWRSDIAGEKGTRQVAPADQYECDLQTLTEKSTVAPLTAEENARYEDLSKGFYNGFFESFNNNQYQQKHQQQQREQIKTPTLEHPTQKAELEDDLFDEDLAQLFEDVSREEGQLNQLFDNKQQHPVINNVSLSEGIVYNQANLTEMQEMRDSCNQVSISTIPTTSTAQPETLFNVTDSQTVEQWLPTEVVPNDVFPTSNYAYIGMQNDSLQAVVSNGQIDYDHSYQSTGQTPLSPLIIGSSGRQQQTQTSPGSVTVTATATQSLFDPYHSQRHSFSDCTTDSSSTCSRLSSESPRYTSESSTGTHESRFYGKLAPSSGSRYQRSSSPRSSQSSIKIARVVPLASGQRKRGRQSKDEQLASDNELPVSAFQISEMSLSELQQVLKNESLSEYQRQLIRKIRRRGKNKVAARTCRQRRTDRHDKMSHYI
In kind it is functional.

Experiment [3] has as its target Luciferin 4-monooxygenase (Photinus pyralis, UniProt P08659). The experiment in a line: firefly luciferase enzyme inhibitors, dose response, biochemical, luminescence (AID 1891).
A short description of experiment [4]: Luminescence Cell-Based Dose Confirmation HTS to Identify Inhibitors of Platelet Dense Granule Release. [Related pubchem assays: 1663 (Primary HTS), 1678 (Summary of Project)]. In kind it is functional.
For another experiment, the system named is INS1. As to the kind of experiment: beta cell apoptosis inhibitors, cytokine rescue, dose response, luminescence, retest (AID 449756).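 Further: cell death triggered by IL-1 beta plus TNF-alpha plus IFN-gamma mixture; protective hits raise ATP signal compared with cytokine alone wells.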 It is filed as functional, cell-based. The settings on record: Rattus norvegicus.
The test system of another experiment is P388/ADR. As to the kind of experiment: cells. In kind it is functional. The note with it: Mus musculus.
The subject of the next experiment is SN12K1. As to the kind of experiment: cells. It is filed as functional. The settings on record: Homo sapiens.
The subject of another experiment is P388. As to the kind of experiment: cells. It is filed as functional. The note with it: Mus musculus.

What is called EC50 is the midpoint of the concentration-response curve. In general, IC50 refers to the concentration at which inhibition is half-maximal. Broadly, the AC50 is the concentration at which the activity in the assay is half-maximal. A word on the GI50: it is the concentration at which growth is held to half of that of the control.

Calls of active or inactive are those of the source. Non-standard residues stand in square brackets, D forms with d. Residues, ends and D or L forms follow the SMILES beside them. ξ: configuration not given here. Pen = CC(C)(S)[C@H](N)C(=O)O; ξL = CC(C)CC(N)C(=O)O Some results are limits rather than exact numbers.

Chain of Luciferin 4-monooxygenase (P08659 whole entry): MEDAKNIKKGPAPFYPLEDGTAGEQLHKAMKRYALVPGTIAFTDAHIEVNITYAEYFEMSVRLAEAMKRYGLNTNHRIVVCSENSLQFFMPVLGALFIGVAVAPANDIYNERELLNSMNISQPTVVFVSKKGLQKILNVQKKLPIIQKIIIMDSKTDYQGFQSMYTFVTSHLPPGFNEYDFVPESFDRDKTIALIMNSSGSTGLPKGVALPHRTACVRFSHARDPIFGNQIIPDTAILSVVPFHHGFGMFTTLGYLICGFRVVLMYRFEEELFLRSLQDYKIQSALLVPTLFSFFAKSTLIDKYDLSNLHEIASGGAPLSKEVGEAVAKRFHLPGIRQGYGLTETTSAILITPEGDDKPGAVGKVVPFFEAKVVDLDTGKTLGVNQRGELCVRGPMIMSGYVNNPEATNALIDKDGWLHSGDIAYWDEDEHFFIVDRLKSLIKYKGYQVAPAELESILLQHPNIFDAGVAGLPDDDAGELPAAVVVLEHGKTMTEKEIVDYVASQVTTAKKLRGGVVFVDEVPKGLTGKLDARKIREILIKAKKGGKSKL

Regarding `O=C(CSc1nc2nccnc2c(=O)n1Cc1cccs1)Nc1ccccc1F`, the EC50 in experiment [1] was > 260 µM (inactive).

On to `CSc1nc(NC(C)(C)C)nc(Oc2ccc(O)nn2)n1`, for which the EC50 in experiment [1] is > 260 µM (inactive).

`O=[N+]([O-])c1ccc(N2CCCC2)c2ccncc12`: the EC50 in experiment [2] was 31.2 µM (active). In addition, the IC50 on Protein skinhead-1 is > 100 µM (inactive).

On to `COc1cc2cc(CN(CCO)S(=O)(=O)c3ccccc3Cl)c(O)nc2cc1OC`, for which the EC50 in experiment [3] and in [4] was > 112 µM (not active) in each case.

For the compound `O=C(c1cc(COc2ccc(F)cc2Cl)on1)N1CCCCCC1`, the IC50 at Protein skinhead-1 was > 100 µM (inactive).

As to `Oc1nc2cc3c(cc2cc1CN(CCc1ccccc1)Cc1nnnn1C1CCCC1)OCCO3`, the EC50 in experiment [3] and in experiment [4] was > 112 µM (not active) each time.

For `CCOC(=O)c1c(NC(=O)CSc2nc3ccccc3o2)sc(C)c1C`, the EC50 in [1] is > 260 µM (inactive).

With `CCc1ccc(S(=O)(=O)NCCc2cn3ccsc3n2)s1`, the EC50 in experiment [3] and in [4] was > 112 µM (not active) throughout.

Take `COc1ccc(NC(=O)c2cc(S(=O)(=O)N3CCc4ccccc43)cn2C)cc1OC`: the EC50 in experiment [3] and in experiment [4] was > 112 µM (not active) each time.

With `COc1cccc(-c2cccc(NC(=O)C3CCN(CC4CCOC4)CC3)c2)c1` (stereo not given), the IC50 on Protein skinhead-1 is > 100 µM (inactive).

`COc1ccccc1CNC(=O)c1ccc(NS(=O)(=O)c2cccs2)cc1`: in experiment [1], the EC50 was > 260 µM (inactive).

Consider `CCn1c(=O)cc(N2CCN(Cc3ccccc3)CC2)[nH]c1=O`, for which the EC50 in experiment [3] and in experiment [4] was > 112 µM (not active) each time.

Regarding `CCCC(C)C(=O)NCc1ccccc1OC` (stereo not given), at Protein skinhead-1, the IC50 is > 100 µM (inactive).

`COc1cccc(NC(=O)CSc2nc3c4ccccc4nc-3c(O)n2C)c1`: the EC50 in experiment [1] is > 260 µM (inactive).

As to `COc1ccc(N2CCN(CC(=O)c3ccc(O)cc3O)CC2)cc1`, the EC50 in [3] and in experiment [4] was > 112 µM (not active) each time.

Consider `O=S1(=O)C=C(Oc2ccc3ccccc3c2)c2ccccc21`, for which the IC50 at Protein skinhead-1 is > 100 µM (inactive).

Consider `Cc1ccc2c(c1)c(C)c(C)n2CC(O)CN1CCOCC1` (stereo not given), for which the IC50 on Protein skinhead-1 was > 100 µM (inactive).

With `c1ccc(C(c2ccccc2)N2CCN(Cc3nnnn3C3CCCC3)CC2)cc1`, the EC50 in experiment [3] and in [4] was > 112 µM (not active) throughout.

Consider `O=C(Nc1ccc(N2CCOCC2)cc1)c1nc2ccccc2s1`, for which the EC50 is 16.4 µM (active) in [3] and 5.93 µM (active) in experiment [4].

Take `COc1cc(C)c(S(=O)(=O)N2CCN=C2c2ccccc2)cc1C`: the EC50 in experiment [1] is > 260 µM (inactive).

As to `CCOC(=O)CSc1nc2ccccc2c(=O)n1CCN1CCOCC1`, the IC50 at Protein skinhead-1 is > 100 µM (inactive).

As to `CN1/C(=C\C(=O)C[n+]2cccc(Br)c2)C(C)(C)c2ccccc21`, the half-maximal activity concentration (AC50) in the experiment on INS1 was 5.62 µM (active).

In the case of `Cc1ccccc1C(=O)NCCOc1ccccc1Cl`, the EC50 in experiment [1] was 25.5 µM (active).

Consider `NC(=O)c1ccc(NC(=O)CC23CC4CC(CC(Br)(C4)C2)C3)cc1`, for which the EC50 in [1] is > 260 µM (inactive).

As to `Cc1ccc(N2C(=O)CCC2(C#N)c2ccccc2)cc1` (stereo not given), the EC50 in experiment [1] was > 260 µM (inactive).

On to `Cc1ccccc1N(C(=O)c1csnn1)C(C(=O)NC(C)(C)C)c1ccncc1` (stereo not given), for which, in [1], the EC50 is > 260 µM (inactive).

With `Cc1cc(O)c(C(C)C)cc1NC(=O)Nc1ccc([N+](=O)[O-])cc1`, the IC50 at Protein skinhead-1 is 68.4 µM (inactive).

`Cc1cccc(C(=O)N(Cc2cccs2)C2CCS(=O)(=O)C2)c1` (stereo not given): the IC50 at Protein skinhead-1 is > 100 µM (inactive).

Consider `Nc1ccc2c(Cl)cc(Cl)cc2c1`, for which the IC50 on Protein skinhead-1 was 22.7 µM (active).

For `CN(C)CCNC(=O)c1cc(Cl)cc2cc3ccccc3nc12`, the GI50 was 0.0622 µM (active) in the experiment with P388/ADR, 0.378 µM (active) in the experiment with SN12K1 and 0.128 µM (active) in the experiment with P388.

For `CCOC(=O)/C=C/c1c[nH]c(C(=O)OCC)c1`, the GI50 with P388/ADR, with SN12K1 and in the experiment on P388 was > 100 µM (inactive) in each case.

Turning to `C=C1C[C@@H](O)C[C@@]2(C)C[C@@H]3OC(=O)C(=C)[C@@H]3C[C@H]12`, the values for the GI50 with P388/ADR, in the experiment on SN12K1 and with P388 were 2.2 µM (inactive), 12.3 µM (inactive) and 2.46 µM (inactive), respectively.

Regarding `COC(=O)C1C(O)C(C)C(O)C(C)(O)/C=C\C=C(C)C(=O)Nc2c(C)c(OC(C)=O)c3c(c2O)C(=O)C(C)=C2OCOC(=C23)C(C)=CC(C)(O)C(O)C(C)C1OC(C)=O` (stereo not given), the GI50 in the experiment on P388/ADR was 41.5 µM (inactive); in the experiment on SN12K1, 37 µM (inactive); in the experiment on P388, 30.3 µM (inactive).

For the compound `CCOC(=O)CNC(=O)NC12CC3CC(CC(C3)C1)C2`, the GI50 was 225 µM (inactive) with P388/ADR, 141 µM (inactive) with SN12K1 and 63.8 µM (inactive) in the experiment on P388.

As for `CCCCCCSc1nc(N)nc2nc[nH]c12`, the GI50 was 12.7 µM (inactive) with P388/ADR, 38.7 µM (inactive) with SN12K1 and > 40.8 µM (inactive) with P388.

On to `c1ccc2c(c1)SCCc1cn[nH]c1-2`, for which the GI50 in the experiment with P388/ADR, in the experiment on SN12K1 and with P388 was > 100 µM (inactive) throughout.

For the compound `CC(=O)OCC1OC(Nc2ncc(-c3ccc(C)cc3)s2)C(OC(C)=O)C(OC(C)=O)C1OC(C)=O` (stereo not given), the GI50 in the experiment with P388/ADR is 25.2 µM (inactive); in the experiment with SN12K1 it was 46.8 µM (inactive); in the experiment with P388, 28.4 µM (inactive).

Consider `CN(C)CCOc1cc2c(c3ccccc13)-c1ccccc1C2=O`, for which the figures for the GI50 in the experiment on P388/ADR, in the experiment on SN12K1 and with P388 were 0.36 µM (active), 0.589 µM (active) and 0.0435 µM (active), respectively.

As for `Cc1cc(O)c2c(c1O)C(=O)C13C(=C(O)C4C(O)C1C1C(O)C3C(O)=C3C(=O)c5c(O)cc(C)c(O)c5C(=O)C341)C2=O` (stereo not given), the results for the GI50 with P388/ADR, in the experiment on SN12K1 and in the experiment with P388 were 0.0461 µM (active), 0.0506 µM (active) and < 0.01 µM (active), respectively.

`Cc1ccccc1C(=O)O/N=C1\CCS(=O)(=O)c2sccc21`: the EC50 in [1] is 0.943 µM (active).

With `CC(C)(C)c1cccc(/C=N/O)c1O`, the EC50 in experiment [1] was > 260 µM (inactive).

Regarding `CCOC(=O)C(C)/C(C)=N/NC(=O)c1cc2ccccc2cc1O` (stereo not given), in the experiment on INS1, the AC50 is 14.8 µM (active).

Regarding `C[S+](C)CC1OC(n2cnc3c(N)ncnc32)C(O)C1O` (stereo not given), the GI50 was > 22.5 µM (inactive) in the experiment on P388/ADR, > 225 µM (inactive) with SN12K1 and > 225 µM (inactive) with P388.

In the case of `CSCC[C@H](NC(=O)C(CC(C)C)NC(=O)[C@H](Cc1c[nH]cn1)NC(=O)CNC(=O)[C@@H](NC(=O)[C@@H](C)NC(=O)[C@H](Cc1c[nH]c2ccccc12)NC(=O)[C@H](CCC(N)=O)NC(=O)[C@@H](N)CC(N)=O)C(C)(C)SC)C(N)=O` (stereo not given in full) (H-NQW[dA][Pen](Me)GH[ξL]M-NH2), the GI50 with P388/ADR, with SN12K1 and with P388 was > 100 µM (inactive) in each case.

On to `NCCCC(N)(C(=O)O)C(F)F` (stereo not given) [EFLORNITHINE], for which the GI50 with P388/ADR was > 1840 µM (inactive); in the experiment on SN12K1 it was 1400 µM (inactive); with P388, 275 µM (inactive).

For the origin of these results see ChEMBL document CHEMBL1201862, “PubChem BioAssay data set” (2004).
